The text below walks through data of ChEMBL document CHEMBL1121776, “Folate antagonists. 18. Synthesis and antimalarial effects of N6-(arylmethyl)-N6-methyl-2,4,6-pteridinetriamines and related N6,N6-disubstituted 2,4,6-pteridinetriamines” (1981).

≈ marks a conversion by molar mass, not a printed value. A value given as a limit tells only on which side of the number the result lay.

Holding throughout (type): functional
Assay [1] has as its system Staphylococcus aureus. The assay can be described thus: In vitro antibacterial effect against S. a. S18713 by using gradient plate test.
In assay [2] the test system is Enterococcus faecalis. The assay can be described thus: In vitro antibacterial effect against S. f MGH-2.
Assay [3] concerns Shigella sonnei. Put plainly: In vitro antibacterial effect against S. s C-10 by using gradient plate test.
In assay [4] the test system is Staphylococcus aureus. The assay can be described thus: In vitro antibacterial effect against S. a. UC-76 by using gradient plate test.
Assay [5] deals with Mycobacterium tuberculosis. The assay can be described thus: In vitro antibacterial effect against M. t. H37Rv by using gradient plate test.
The subject of assay [6] is Escherichia coli. Put plainly: In vitro antibacterial effect against E. c. Vogel by using gradient plate test.
Assay [7] relates to Pseudomonas aeruginosa. The assay can be described thus: In vitro antibacterial effect against P.a 28 by using gradient plate test.
In assay [8] the test system is Mus musculus. Put plainly: Parenteral antimalarial effect against Plasmodium berghei in mice (Mus musculus) at a dose of 160 subcutaneously mg/kg.
Assay [9] has as its system Mus musculus. Put plainly: Parenteral antimalarial effect against Plasmodium berghei in mice (Mus musculus) at a dose of 20sc mg/kg.
Assay [10] has as its system Mus musculus. Put plainly: Parenteral antimalarial effect against Plasmodium berghei in mice (Mus musculus) at a dose of 640 subcutaneously mg/kg; Number of mice (Mus musculus) surviving at 60 days post infection and cured 4/10.
Assay [11] relates to Mus musculus. The assay can be described thus: Parenteral antimalarial effect against Plasmodium berghei in mice (Mus musculus) at a dose of 320 subcutaneously mg/kg; Number of mice (Mus musculus) surviving at 60 days post infection and cured 1/5.
The subject of assay [12] is Mus musculus. The assay can be described thus: Parenteral antimalarial effect against Plasmodium berghei in mice (Mus musculus) at a dose of 40 mg/kg subcutaneously. Particulars: route subcutaneous.
In assay [13] the test system is Mus musculus. The assay can be described thus: Parenteral antimalarial effect against Plasmodium berghei in mice (Mus musculus) at a dose of 80 mg/kg subcutaneously. Particulars: route subcutaneous.
The subject of assay [14] is Mus musculus. The assay can be described thus: Parenteral antimalarial effect against Plasmodium berghei in mice (Mus musculus) at a dose of 640 mg/kg subcutaneously; Number of mice (Mus musculus) surviving at 60 days post infection and cured 10/10. Particulars: route subcutaneous.
Assay [15] relates to Mycobacterium tuberculosis. The assay can be described thus: In vitro antibacterial effect against Mycobacterium tuberculosis H37Rv by using gradient plate test.
Assay [16] has as its system Shigella sonnei. The assay can be described thus: In vitro antibacterial effect against Shigella sonnei C-10 by using gradient plate test.
In assay [17] the test system is Mus musculus. The assay can be described thus: Parenteral antimalarial effect against Plasmodium berghei in mice (Mus musculus) at a dose of 10sc mg/kg.
The subject of assay [18] is Enterococcus faecalis. Put plainly: In vitro antibacterial effect against Streptococcus faecalis MGH-2.
Assay [19] relates to Staphylococcus aureus. Put plainly: In vitro antibacterial effect against Staphylococcus aureus UC-76 by using gradient plate test.
For assay [20], the system named is Staphylococcus aureus. The assay can be described thus: In vitro antibacterial effect against Staphylococcus aureus S18713 by using gradient plate test.
Assay [21] concerns Pseudomonas aeruginosa. Put plainly: In vitro antibacterial effect against Pseudomonas aeruginosa 28 by using gradient plate test.
Assay [22] concerns Mus musculus. The assay can be described thus: Parenteral antimalarial effect against Plasmodium berghei in mice (Mus musculus) at a dose of 160 mg/kg subcutaneously 10/10. Particulars: route subcutaneous.
Assay [23] relates to Mus musculus. Put plainly: Parenteral antimalarial effect against Plasmodium berghei in mice (Mus musculus) at a dose of 320 mg/kg subcutaneously; 5/5. Particulars: route subcutaneous.
In assay [24] the test system is Mus musculus. Put plainly: Parenteral antimalarial effect against Plasmodium berghei in mice (Mus musculus) at a dose of 160 mg/kg subcutaneously; Number of mice (Mus musculus) surviving at 60 days post infection and cured 6/10. Particulars: route subcutaneous.
Assay [25] has as its system Mus musculus. The assay can be described thus: Parenteral antimalarial effect against Plasmodium berghei in mice (Mus musculus) at a dose of 320 mg/kg subcutaneously; Number of mice (Mus musculus) surviving at 60 days post infection and cured 3; No of toxic deaths 2. Particulars: route subcutaneous.
Assay [26] has as its system Escherichia coli. Put plainly: In vitro antibacterial effect against Escherichia coli Vogel by using gradient plate test.
Assay [27] relates to Mus musculus. Put plainly: Parenteral antimalarial effect against Plasmodium berghei in mice (Mus musculus) at a dose of 160 mg/kg subcutaneously; Number of mice (Mus musculus) surviving at 60 days post infection and cured 8/10. Particulars: route subcutaneous.
Assay [28] relates to Mus musculus. The assay can be described thus: Parenteral antimalarial effect against Plasmodium berghei in mice (Mus musculus) at a dose of 40sc mg/kg; Number of mice (Mus musculus) surviving at 60 days post infection and cured 6/10.

For the compound `COc1cc(Cc2cnc(N)nc2N)cc(OC)c1OC` [TRIMETHOPRIM], the MIC (usually the smallest concentration in the dilution series that meets the test's criterion for growth inhibition) against Staphylococcus aureus [1] was less than 0.25 µg/mL; against Enterococcus faecalis [2], less than 0.25 µg/mL; with Shigella sonnei [3], greater than 25 µg/mL; in the assay with Staphylococcus aureus [4], less than 0.25 µg/mL; in [5], greater than 25 µg/mL; against Escherichia coli [6], greater than 25 µg/mL. The compound further gave an MIC against Pseudomonas aeruginosa [7] greater than 25 µg/mL.

On to `CN(Cc1cccc(Br)c1)c1cnc2nc(N)nc(N)c2n1`, for which the MST in the assay with Mus musculus [8] was determined as 12.8 days; with Mus musculus [9] it was 6.9 days; with Mus musculus [10], 4 days; in the assay with Mus musculus [11], 1 days; in the assay with Mus musculus [12], 10.2 days; in the assay with Mus musculus [13], 10.7 days.

For `CN(Cc1ccc(Cl)c(Cl)c1)c1cnc2nc(N)nc(N)c2n1`, the MST with Mus musculus [14] was 10 days; with Mus musculus [9], 10.6 days; in the assay on Mus musculus [17], 2.5 days; with Mus musculus [22], 10 days; with Mus musculus [23], 5 days. For the same compound, the MIC in assay [15] was 10 µg/mL (≈ 28.6 µM); with Shigella sonnei [16], greater than 25 µg/mL; against Enterococcus faecalis [18] it was less than 0.25 µg/mL; in the assay on Staphylococcus aureus [19] it was less than 0.25 µg/mL; in the assay on Staphylococcus aureus [20], less than 0.25 µg/mL; against Pseudomonas aeruginosa [21], greater than 25 µg/mL. Also, the minimal inhibitory concentration (MIC) in the assay on Escherichia coli [6] is greater than 25 µg/mL.

On to `CN(Cc1ccccc1Cl)c1cnc2nc(N)nc(N)c2n1`, for which the MST in the assay with Mus musculus [24] is 6 days; with Mus musculus [9], 9.5 days; in the assay on Mus musculus [25] it was 3 days. The MIC in [15] is 5 µg/mL (≈ 15.8 µM); against Shigella sonnei [16], greater than 25 µg/mL; with Enterococcus faecalis [18], less than 0.25 µg/mL; with Staphylococcus aureus [19], less than 0.25 µg/mL; against Staphylococcus aureus [20], less than 0.25 µg/mL; against Pseudomonas aeruginosa [21], greater than 25 µg/mL. Besides, the MIC against Escherichia coli [6] was greater than 25 µg/mL.

On to `COc1cc(CN(C)c2cnc3nc(N)nc(N)c3n2)cc(OC)c1OC`, for which the MIC in the assay on Escherichia coli [26] is greater than 25 µg/mL; in assay [15], greater than 25 µg/mL; in the assay on Shigella sonnei [16], greater than 25 µg/mL; in the assay with Enterococcus faecalis [18] it was less than 0.25 µg/mL; in the assay on Staphylococcus aureus [19] it was less than 0.25 µg/mL; in the assay on Staphylococcus aureus [20], less than 0.25 µg/mL. Besides, the minimum inhibitory concentration (MIC) in the assay on Pseudomonas aeruginosa [21] is greater than 25 µg/mL. Moreover, the MST in the assay on Mus musculus [14] came out at 10 days; with Mus musculus [9], 5.5 days; in the assay with Mus musculus [27], 8 days; with Mus musculus [28], 6 days.
